Laboratory results as given in the NIST ThermoML archive (doi:10.1021/je050294+).
Numbers after ± are expanded uncertainties.

Legend:
[1] = xn = mol fraction of the nth substance listed; details: Liquid; for speed of sound: Linear variable-path acoustic interferometer; for mass density: Vibrating tube method
[2] = excess molar enthalpy (molar enthalpy of mixing); xn = mol fraction of the nth substance listed; details: 101 kPa, Liquid, Flow calorimetry

C=C1CCC2CC1C2(C)C (stereo not drawn) [β-pinene] + CCCCO
[1], 101 kPa
Details	mass density [kg/m3]	speed of sound [m/s]
283.15 K, x1 = 0.0494	822.4 ± 0.14	1295.8 ± 1.5
283.15 K, x1 = 0.1023	827.32 ± 0.15	1299.6 ± 1.5
283.15 K, x1 = 0.204	835.8 ± 0.18	1305.9 ± 1.5
283.15 K, x1 = 0.3052	843.23 ± 0.21	1311.7 ± 1.5
283.15 K, x1 = 0.4007	849.5 ± 0.24	1316.8 ± 1.5
283.15 K, x1 = 0.5005	855.39 ± 0.27	1321.9 ± 1.6
283.15 K, x1 = 0.5929	–	1323.6 ± 1.6
283.15 K, x1 = 0.695	865.44 ± 0.34	1332 ± 1.7
283.15 K, x1 = 0.7975	870.17 ± 0.38	1338.1 ± 1.7
283.15 K, x1 = 0.9009	874.7 ± 0.41	1345.2 ± 1.7
283.15 K, x1 = 0.9179	875.44 ± 0.42	1347.3 ± 1.8
298.15 K, x1 = 0.054	811.4 ± 0.15	1243.7 ± 1.4
298.15 K, x1 = 0.1027	815.79 ± 0.16	1246.2 ± 1.4
298.15 K, x1 = 0.1893	822.86 ± 0.18	1250.3 ± 1.4
298.15 K, x1 = 0.2992	830.92 ± 0.21	1255.2 ± 1.5
298.15 K, x1 = 0.4011	837.49 ± 0.24	1259.4 ± 1.5
298.15 K, x1 = 0.4987	843.18 ± 0.27	1263.5 ± 1.5
298.15 K, x1 = 0.6041	848.79 ± 0.31	1268.1 ± 1.6
298.15 K, x1 = 0.6946	853.25 ± 0.34	1272.3 ± 1.6
298.15 K, x1 = 0.7745	856.95 ± 0.36	1276.6 ± 1.6
298.15 K, x1 = 0.9003	862.46 ± 0.41	1284.6 ± 1.7
298.15 K, x1 = 0.9349	863.93 ± 0.42	1287.4 ± 1.7
313.15 K, x1 = 0.0493	799.21 ± 0.15	1193.1 ± 1.4
313.15 K, x1 = 0.1011	803.76 ± 0.16	1194.6 ± 1.4
313.15 K, x1 = 0.1988	811.57 ± 0.18	1197.8 ± 1.4
313.15 K, x1 = 0.3012	818.82 ± 0.21	1201 ± 1.4
313.15 K, x1 = 0.3998	825.01 ± 0.24	1203.9 ± 1.5
313.15 K, x1 = 0.5009	830.84 ± 0.27	1207.3 ± 1.5
313.15 K, x1 = 0.6003	836.12 ± 0.3	1211.4 ± 1.5
313.15 K, x1 = 0.7062	841.36 ± 0.34	1216.2 ± 1.6
313.15 K, x1 = 0.8017	845.7 ± 0.37	1221.1 ± 1.6
313.15 K, x1 = 0.8988	850.1 ± 0.4	1227.1 ± 1.7
313.15 K, x1 = 0.954	852.44 ± 0.42	1231.4 ± 1.7

excess molar enthalpy [kcal/mol], [2]
Details	283.15 K	298.15 K	313.15 K
x1 = 0.066	0.0117 ± 0.0012	0.0165 ± 0.0012	0.0213 ± 0.0012
x1 = 0.134	0.0253 ± 0.0012	0.0366 ± 0.0012	0.0468 ± 0.00143
x1 = 0.259	0.0514 ± 0.00143	0.0741 ± 0.00143	0.102 ± 0.00167
x1 = 0.371	0.0724 ± 0.00143	0.102 ± 0.00167	0.137 ± 0.00191
x1 = 0.489	0.0901 ± 0.00167	0.125 ± 0.00191	0.17 ± 0.00215
x1 = 0.591	0.101 ± 0.00167	0.138 ± 0.00191	0.186 ± 0.00215
x1 = 0.677	0.105 ± 0.00167	0.141 ± 0.00191	0.19 ± 0.00215
x1 = 0.765	0.0985 ± 0.00167	0.133 ± 0.00191	0.179 ± 0.00215
x1 = 0.856	0.0846 ± 0.00143	0.114 ± 0.00167	0.153 ± 0.00191
x1 = 0.927	0.0674 ± 0.00143	0.0889 ± 0.00167	0.116 ± 0.00191
x1 = 0.975	0.0435 ± 0.00167	0.0667 ± 0.00167	0.0786 ± 0.00191

C=C1CCC2CC1C2(C)C (stereo not drawn) [β-pinene] + CCC(C)O
[1], 101.3 kPa
Details	mass density [kg/m3]	speed of sound [m/s]
283.15 K, x1 = 0.0526	820.26 ± 0.43	1271.9 ± 1.7
283.15 K, x1 = 0.1031	824.88 ± 0.43	1276.6 ± 1.7
283.15 K, x1 = 0.2058	833.37 ± 0.43	1285.1 ± 1.8
283.15 K, x1 = 0.3006	840.38 ± 0.43	1292.5 ± 1.8
283.15 K, x1 = 0.4019	847.14 ± 0.44	1299.8 ± 1.8
283.15 K, x1 = 0.5035	853.29 ± 0.44	1307.2 ± 1.8
283.15 K, x1 = 0.6023	858.87 ± 0.44	1314.9 ± 1.8
283.15 K, x1 = 0.7047	864.32 ± 0.44	1323.5 ± 1.8
283.15 K, x1 = 0.7995	869.14 ± 0.45	1332.4 ± 1.8
283.15 K, x1 = 0.8988	873.93 ± 0.45	1342.4 ± 1.8
283.15 K, x1 = 0.9401	875.92 ± 0.45	1347 ± 1.8
298.15 K, x1 = 0.0522	807.98 ± 0.42	1216.6 ± 1.7
298.15 K, x1 = 0.105	812.54 ± 0.42	1220.2 ± 1.7
298.15 K, x1 = 0.206	820.79 ± 0.43	1227.3 ± 1.7
298.15 K, x1 = 0.3006	827.65 ± 0.43	1233.5 ± 1.7
298.15 K, x1 = 0.3995	834.25 ± 0.43	1240 ± 1.7
298.15 K, x1 = 0.5017	840.58 ± 0.43	1247.2 ± 1.7
298.15 K, x1 = 0.6096	846.71 ± 0.44	1255.5 ± 1.7
298.15 K, x1 = 0.7011	851.61 ± 0.44	1263 ± 1.7
298.15 K, x1 = 0.8035	856.93 ± 0.44	1272.5 ± 1.7
298.15 K, x1 = 0.9067	862.02 ± 0.44	1282.6 ± 1.8
298.15 K, x1 = 0.9449	863.9 ± 0.44	1287 ± 1.8
313.15 K, x1 = 0.0526	794.95 ± 0.42	1161.7 ± 1.7
313.15 K, x1 = 0.0997	799.22 ± 0.42	1164.1 ± 1.7
313.15 K, x1 = 0.2028	807.25 ± 0.42	1170.4 ± 1.7
313.15 K, x1 = 0.2999	814.22 ± 0.42	1175.7 ± 1.7
313.15 K, x1 = 0.4043	821.27 ± 0.43	1182.5 ± 1.7
313.15 K, x1 = 0.5088	827.69 ± 0.43	1189.9 ± 1.7
313.15 K, x1 = 0.6027	833.19 ± 0.43	1197 ± 1.7
313.15 K, x1 = 0.6993	838.59 ± 0.43	1205 ± 1.7
313.15 K, x1 = 0.8035	844.16 ± 0.44	1214.6 ± 1.7
313.15 K, x1 = 0.896	848.93 ± 0.44	1223.2 ± 1.7
313.15 K, x1 = 0.9453	851.52 ± 0.44	1228.7 ± 1.7

excess molar enthalpy [kcal/mol], [2]
Details	283.15 K	298.15 K	313.15 K
x1 = 0.066	0.0306 ± 0.00143	0.0413 ± 0.00191	0.0397 ± 0.00191
x1 = 0.134	0.0629 ± 0.00167	0.087 ± 0.00167	0.0968 ± 0.00191
x1 = 0.259	0.111 ± 0.00191	0.152 ± 0.00191	0.179 ± 0.00215
x1 = 0.38	0.143 ± 0.00215	0.196 ± 0.00239	0.234 ± 0.00239
x1 = 0.489	0.164 ± 0.00239	0.223 ± 0.00239	0.2682 ± 0.00263
x1 = 0.581	0.172 ± 0.00239	0.232 ± 0.00263	0.2806 ± 0.00263
x1 = 0.677	0.169 ± 0.00239	0.227 ± 0.00239	0.2768 ± 0.00263
x1 = 0.765	0.155 ± 0.00215	0.208 ± 0.00239	0.257 ± 0.00263
x1 = 0.845	0.131 ± 0.00215	0.177 ± 0.00239	0.223 ± 0.00263
x1 = 0.927	0.0925 ± 0.00191	0.127 ± 0.00215	0.161 ± 0.00263
x1 = 0.963	0.0669 ± 0.00191	0.0903 ± 0.00239	0.112 ± 0.00311
